Measured values from the NIST ThermoML archive (doi:10.1016/j.jct.2005.04.017).

Experiment: mn = molality of the nth substance listed, in mol/kg
Details: Liquid, Capillary tube (Ostwald / Ubbelohde) method

O=[N+]([O-])[O-].O=[N+]([O-])[O-].[Ni+2] [nickel(II) nitrate] + O
viscosity [mPa·s]
Details | 100 kPa | 10000 kPa | 20000 kPa | 30000 kPa
297.86 K, m1 = 1.824 | 1.671 | 1.672 | 1.672 | 1.673
297.86 K, m1 = 2.246 | 1.973 | 1.973 | 1.974 | 1.974
297.98 K, m1 = 0.608 | 1.078 | 1.077 | 1.077 | 1.078
298.43 K, m1 = 0.218 | 0.9454 | 0.9468 | 0.9471 | 0.9482
298.64 K, m1 = 0.951 | 1.193 | 1.194 | 1.194 | 1.194
298.65 K, m1 = 0.153 | 0.9231 | 0.9246 | 0.9251 | 0.9261
298.65 K, m1 = 0.288 | 0.9601 | 0.9606 | 0.961 | 0.962
299.24 K, m1 = 0.05 | 0.884 | 0.8839 | 0.8843 | 0.8845
299.76 K, m1 = 1.368 | 1.348 | 1.348 | 1.349 | 1.35
309.84 K, m1 = 2.246 | 1.537 | 1.539 | 1.542 | 1.545
321.54 K, m1 = 0.05 | 0.5771 | 0.579 | 0.5797 | 0.582
322.46 K, m1 = 2.246 | 1.225 | 1.231 | 1.236 | 1.241
322.56 K, m1 = 0.153 | 0.5821 | 0.5872 | 0.592 | 0.5938
322.56 K, m1 = 0.288 | 0.6103 | 0.6122 | 0.613 | 0.6145
323.46 K, m1 = 0.608 | 0.6691 | 0.6724 | 0.6754 | 0.6781
323.67 K, m1 = 0.951 | 0.7503 | 0.7533 | 0.7564 | 0.7595
323.74 K, m1 = 0.218 | 0.5854 | 0.5895 | 0.5944 | 0.5968
324.76 K, m1 = 1.824 | 1.026 | 1.031 | 1.036 | 1.04
326.78 K, m1 = 1.368 | 0.8295 | 0.8341 | 0.8376 | 0.8422
330.84 K, m1 = 2.246 | 1.072 | 1.078 | 1.082 | 1.089
338.46 K, m1 = 1.368 | 0.703 | 0.7074 | 0.7123 | 0.7174
347.43 K, m1 = 0.288 | 0.4289 | 0.4346 | 0.4376 | 0.4422
347.65 K, m1 = 0.05 | 0.3939 | 0.3949 | 0.3964 | 0.4013
347.82 K, m1 = 2.246 | 0.843 | 0.8486 | 0.8534 | 0.8621
347.94 K, m1 = 0.218 | 0.4152 | 0.4194 | 0.4228 | 0.426
348.89 K, m1 = 0.153 | 0.401 | 0.4057 | 0.4091 | 0.4122
349.46 K, m1 = 0.951 | 0.5292 | 0.5331 | 0.5374 | 0.5411
349.76 K, m1 = 0.608 | 0.4664 | 0.4708 | 0.4742 | 0.4779
349.76 K, m1 = 1.368 | 0.6103 | 0.6146 | 0.6194 | 0.6253
349.76 K, m1 = 1.824 | 0.722 | 0.728 | 0.7335 | 0.738
364.21 K, m1 = 2.246 | 0.6918 | 0.698 | 0.705 | 0.7104
372.46 K, m1 = 0.153 | 0.3059 | 0.3101 | 0.314 | 0.3166
372.48 K, m1 = 0.218 | 0.3134 | 0.3179 | 0.3212 | 0.3248
372.49 K, m1 = 1.368 | – | 0.4771 | 0.4824 | 0.4869
372.54 K, m1 = 0.05 | 0.2921 | 0.2949 | 0.2984 | 0.3015
372.84 K, m1 = 1.824 | 0.5558 | 0.5612 | 0.5672 | 0.5721
373.06 K, m1 = 0.288 | – | 0.3246 | 0.3275 | 0.3318
373.82 K, m1 = 0.608 | – | 0.36 | 0.3643 | 0.3681
375.48 K, m1 = 2.246 | – | 0.619 | 0.6251 | 0.6322
375.81 K, m1 = 0.951 | 0.395 | 0.399 | 0.4042 | 0.407
394.58 K, m1 = 2.246 | – | 0.5162 | 0.5211 | 0.5279
394.68 K, m1 = 0.05 | – | 0.2391 | 0.2416 | 0.2449
396.43 K, m1 = 0.951 | – | 0.3329 | 0.3365 | 0.3403
397.82 K, m1 = 0.153 | – | 0.2441 | 0.2474 | 0.2509
398.42 K, m1 = 0.288 | – | 0.2566 | 0.2608 | 0.2633
398.49 K, m1 = 0.608 | – | 0.289 | 0.293 | 0.2967
398.61 K, m1 = 0.218 | – | 0.249 | 0.2532 | 0.2549
399.46 K, m1 = 1.368 | – | 0.3743 | 0.3789 | 0.384
399.46 K, m1 = 1.824 | – | 0.4393 | 0.4445 | 0.4496
412.58 K, m1 = 2.246 | – | 0.4452 | 0.4505 | 0.4568
416.89 K, m1 = 1.368 | – | 0.327 | 0.3311 | 0.3363
421.95 K, m1 = 0.05 | – | 0.1929 | 0.1958 | 0.1985
422.49 K, m1 = 1.824 | – | 0.3682 | 0.3726 | 0.378
422.81 K, m1 = 0.288 | – | 0.2142 | 0.2168 | 0.2198
422.83 K, m1 = 0.951 | – | 0.2731 | 0.2767 | 0.2807
423.73 K, m1 = 0.608 | – | 0.2402 | 0.2435 | 0.2468
424.57 K, m1 = 0.153 | – | 0.1989 | 0.203 | 0.205
424.57 K, m1 = 0.218 | – | 0.2053 | 0.2081 | 0.2119
426.84 K, m1 = 2.246 | – | 0.4007 | 0.4063 | 0.4124
426.89 K, m1 = 1.368 | – | 0.3051 | 0.3095 | 0.3134
446.79 K, m1 = 2.246 | – | 0.3515 | 0.3578 | 0.3622
447.26 K, m1 = 1.368 | – | 0.2684 | 0.2714 | 0.276
448.24 K, m1 = 1.824 | – | 0.3116 | 0.3159 | 0.3211
448.96 K, m1 = 0.288 | – | 0.1818 | 0.1845 | 0.1878
449.28 K, m1 = 0.153 | – | 0.1703 | 0.1741 | 0.1764
449.46 K, m1 = 0.608 | – | 0.205 | 0.2085 | 0.2114
449.48 K, m1 = 0.951 | – | 0.2309 | 0.2347 | 0.2382
449.65 K, m1 = 0.05 | – | 0.1611 | 0.1639 | 0.1661
449.72 K, m1 = 0.218 | – | 0.175 | 0.1778 | 0.1807
471.51 K, m1 = 0.153 | – | 0.151 | 0.1534 | 0.1565
472.15 K, m1 = 0.05 | – | 0.142 | 0.1447 | 0.1468
472.46 K, m1 = 2.246 | – | 0.304 | 0.3094 | 0.314
473.12 K, m1 = 1.824 | – | 0.2716 | 0.2768 | 0.2808
473.87 K, m1 = 0.288 | – | 0.1591 | 0.1628 | 0.1645
474.24 K, m1 = 0.218 | – | 0.1536 | 0.156 | 0.1592
474.83 K, m1 = 0.608 | – | 0.1805 | 0.1834 | 0.186
475.84 K, m1 = 1.368 | – | 0.23 | 0.2342 | 0.2375
